{"source": "patent US4710499A", "about": "“New derivatives of pyridazine active on the central nervous system” (priority 1981, dated 1987)", "key": {"[1]": {"system": "convulsivant effects of strychnine", "assay": "Anti-Strychnine Activity (oral, mice)", "format": "in vivo", "settings": "for ED50: Mus musculus, po, read-out: Inhibition of the convulsivant effects of Strychinine ED50", "description": "(§1) The anticonvulsivant activity of the derivatives was assessed with respect to two chemical agents: strychnine and bicuculline, and with respect to electric shock. In these various tests, the products were compared with the minaprine described in French Patent 2 141 697 mentioned hereinabove.\nThe products are administered by the oral route 30 minutes before the strychnine 0.9 mg/kg i.p.. The occurrence of tetanic crises as well as mortality are noted during the 60 minutes following administration of strychnine.\n(§2) In the three cases, the products are administered in a range of doses to batches of 10 mice per dose."}, "[2]": {"system": "convulsivant effects of bicuculline", "assay": "Anti-Bicuculline Activity (oral, mice)", "format": "in vivo", "settings": "for ED50: Mus musculus, read-out: Inhibition of the convulsivant effects of Bicuculline ED50", "description": "as §1\nAnti-Bicuculline Activity\nThe products are administered by the oral route 30 minutes before the bicuculline 0.9 mg/kg i.v.. The occurrence of clonic, tonic crises as well as mortality are noted during the 60 minutes following administration of bicuculline.\nas §2"}, "[3]": {"system": "convulsivant effects of electric shock", "assay": "Anti-Electric Shock Activity (oral, mice)", "format": "in vivo", "settings": "for ED50: Mus musculus, po, read-out: Inhibition of the convulsivant effects of electric shock ED50; for anti-convulsivant activity with respect to electric shock (in words): oral", "description": "The anticonvulsivant activity of the derivatives was assessed with respect to two chemical agents: strychnine and bicuculline, and with respect to electric shock.\nAnti-Electric Shock Activity\nThe electric shock was given to the animal via corneal electrodes. […] The animals not presenting extension of the rear limbs were considered as protected.\nas §2"}, "[4]": {"assay": "Acute toxicity, mortality within 24 hours (oral, mice)", "format": "in vivo", "settings": "mouse, in vivo"}, "mice": {"system": "mice", "assay": "Acute toxicity, mortality within 24 hours (oral, mice)", "format": "in vivo", "settings": "for toxic effect at the dose of 500 mg/kg p.os (in words): mouse, in vivo"}, "[5]": {"settings": "per os; cited from earlier work"}, "[6]": {"settings": "30 minutes before bicuculline 0.9 mg/kg i.v., 10 mice per dose"}, "[7]": {"settings": "mice, per os, 30 minutes before electric shock (12.5 volts for 0.5 seconds), corneal electrodes, 10 mice per dose"}, "[8]": {"settings": "mice, oral, 250 mg/kg, 24 hours, read-out: p. cent of mortality at 250 mg/kg"}, "[9]": {"settings": "mice, oral, 500 mg/kg, 24 hours, read-out: p. cent of mortality at 500 mg/kg"}, "[10]": {"settings": "mice, oral, 1000 mg/kg, 24 hours, read-out: p. cent of mortality at 1000 mg/kg"}}, "note": "Counter-ions that a name gives are not always drawn. Like-named read-outs stand apart in the source and are kept apart here."}
{"smiles": "Cc1cc(-c2ccccc2)nnc1NCCO", "note": "[CM 30094, 3-(2-HYDROXY ETHYLAMINO)4-METHYL 6-PHENYL PYRIDAZINE]", "values": [{"measurement": "ED50", "setting": "[1]", "result": 119, "unit": "mg/kg"}, {"measurement": "ED50", "setting": "[2]; [6]", "result": 286, "unit": "mg/kg"}, {"measurement": "ED50", "setting": "[3]; [7]", "result": 107, "unit": "mg/kg"}, {"measurement": "mortality at 24 h", "setting": "[4]; [8]", "result": 0, "unit": "%"}, {"measurement": "mortality at 24 h", "setting": "[4]; [9]", "result": 0, "unit": "%"}, {"measurement": "mortality at 24 h", "setting": "[4]; [10]", "result": 0, "unit": "%"}]}
{"smiles": "Cc1cc(-c2ccccc2)nnc1NCC(C)O", "note": "(stereo not shown) [CM 30096]", "values": [{"measurement": "ED50", "setting": "[1]", "result": 92, "unit": "mg/kg"}, {"measurement": "anti-convulsivant activity with respect to strychnine (in words)", "setting": "[1]; mice, oral", "result": "particularly powerful"}, {"measurement": "anti-convulsivant activity with respect to bicuculline (in words)", "setting": "[2]", "result": "still considerable"}, {"measurement": "ED50", "setting": "[2]; [6]", "result": 175, "unit": "mg/kg"}, {"measurement": "ED50", "setting": "[3]; [7]", "result": 209, "unit": "mg/kg"}, {"measurement": "anti-convulsivant activity with respect to electric shock (in words)", "setting": "[3]; mice", "result": "still considerable"}, {"measurement": "mortality at 24 h", "setting": "[4]; po, 250 mg/kg", "result": 0, "unit": "%"}, {"measurement": "mortality at 24 h", "setting": "[4]; po, 500 mg/kg", "result": 20, "unit": "%"}, {"measurement": "mortality at 24 h", "setting": "[4]; po, 1000 mg/kg", "result": 100, "unit": "%"}, {"measurement": "toxic effect at the dose of 500 mg/kg p.os (in words)", "setting": "mice", "result": "have a toxic effect"}]}
{"smiles": "Cc1cc(-c2ccccc2)nnc1NCCCCO", "note": "[CM 30097]", "values": [{"measurement": "mortality at 24 h", "setting": "[4]; [8]", "result": 0, "unit": "%"}, {"measurement": "mortality at 24 h", "setting": "[4]; [9]", "result": 0, "unit": "%"}, {"measurement": "mortality at 24 h", "setting": "[4]; [10]", "result": 100, "unit": "%"}]}
{"smiles": "COCCNc1nnc(-c2ccccc2)cc1C", "note": "[CM 30310, 3-(2-METHOXY ETHYLAMINO)4-METHYL 6-PHENYL PYRIDAZINE]", "values": [{"measurement": "ED50", "setting": "[1]", "result": 158, "unit": "mg/kg"}, {"measurement": "anti-convulsivant activity with respect to strychnine (in words)", "setting": "[1]; mice, oral", "result": "particularly powerful"}, {"measurement": "ED50", "setting": "[2]; [6]", "result": 136, "unit": "mg/kg"}, {"measurement": "ED50", "setting": "[3]; [7]", "result": 78, "unit": "mg/kg"}, {"measurement": "mortality at 24 h", "setting": "[4]; [8]", "result": 0, "unit": "%"}, {"measurement": "mortality at 24 h", "setting": "[4]; [9]", "result": 0, "unit": "%"}, {"measurement": "mortality at 24 h", "setting": "[4]; [10]", "result": 100, "unit": "%"}]}
{"smiles": "OCCNc1nnc(-c2ccccc2)cc1-c1ccccc1", "note": "[CM 30339]", "values": [{"measurement": "ED50", "setting": "[1]", "result": 145, "unit": "mg/kg"}, {"measurement": "anti-convulsivant activity with respect to strychnine (in words)", "setting": "[1]; mice, oral", "result": "particularly powerful"}, {"measurement": "ED50", "setting": "[2]; [6]", "result": 86, "unit": "mg/kg"}, {"measurement": "ED50", "setting": "[3]; [7]", "result": "~200", "unit": "mg/kg"}, {"measurement": "mortality at 24 h", "setting": "[4]; po, 250 mg/kg", "result": 0, "unit": "%"}, {"measurement": "mortality at 24 h", "setting": "[4]; po, 500 mg/kg", "result": 60, "unit": "%"}, {"measurement": "mortality at 24 h", "setting": "[4]; po, 1000 mg/kg", "result": 60, "unit": "%"}, {"measurement": "toxic effect at the dose of 500 mg/kg p.os (in words)", "setting": "mice", "result": "have a toxic effect"}]}
{"smiles": "COCCNc1nnc(-c2ccccc2)cc1-c1ccccc1", "note": "[CM 30340, 3-(2-methoxyethylamino)4,6-diphenyl pyridazine]", "values": [{"measurement": "mortality at 24 h", "setting": "[4]; [8]", "result": 0, "unit": "%"}, {"measurement": "mortality at 24 h", "setting": "[4]; [9]", "result": 0, "unit": "%"}, {"measurement": "mortality at 24 h", "setting": "[4]; [10]", "result": 20, "unit": "%"}]}
{"smiles": "CCCCNc1nnc(-c2ccccc2)cc1C", "note": "[CM 30434, 3-BUTYLAMINO 4-METHYL 6-PHENYL PYRIDAZINE]", "values": [{"measurement": "mortality at 24 h", "setting": "[4]; [8]", "result": 0, "unit": "%"}, {"measurement": "mortality at 24 h", "setting": "[4]; [9]", "result": 0, "unit": "%"}, {"measurement": "mortality at 24 h", "setting": "[4]; [10]", "result": 0, "unit": "%"}]}
{"smiles": "Cc1cc(-c2ccccc2)nnc1NCCN1CCOCC1", "note": "[Minaprine, reference compound]", "values": [{"measurement": "anti-convulsivant activity with respect to strychnine (in words)", "setting": "[1]; mice, oral", "result": "totally inactive"}, {"measurement": "Inhibition of the convulsivant effects of Strychinine ED50", "setting": "[1]; mice, oral, 30 minutes before strychnine 0.9 mg/kg i.p., 10 mice per dose", "result": "Inactive"}, {"measurement": "anti-convulsivant activity with respect to bicuculline (in words)", "setting": "[2]", "result": "totally inactive"}, {"measurement": "Inhibition of the convulsivant effects of Bicuculline ED50", "setting": "[2]; [6]", "result": "Inactive"}, {"measurement": "anti-convulsivant activity with respect to electric shock (in words)", "setting": "[3]; mice", "result": "totally inactive"}, {"measurement": "Inhibition of the convulsivant effects of electric shock ED50", "setting": "[3]; [7]", "result": "Inactive"}, {"measurement": "mortality", "setting": "[4]; po, 100 mg/kg", "result": 20, "unit": "%"}, {"measurement": "mortality at 24 h", "setting": "[4]; po, 250 mg/kg", "result": 100, "unit": "%"}, {"measurement": "mortality at 24 h", "setting": "[4]; po, 500 mg/kg", "result": 100, "unit": "%"}, {"measurement": "mortality at 24 h", "setting": "[4]; po, 1000 mg/kg", "result": 100, "unit": "%"}, {"measurement": "toxicity, overall (in words)", "setting": "mice; mice, p.os", "result": "much greater toxic effect"}, {"measurement": "dose at which the product shows itself to be convulsivant", "setting": "[5]", "result": "greater than 100 mg/kg"}]}
{"smiles": "CCCC(CCC)C(=O)O", "note": "[Sodium Valproate, sodium salt of valproic acid, reference compound]", "values": [{"measurement": "ED50", "setting": "[1]", "result": 480, "unit": "mg/kg"}, {"measurement": "anti-convulsivant activity with respect to strychnine (in words)", "setting": "[1]; mice, oral", "result": "effective dose 50 most often greater than that of the products of the invention"}, {"measurement": "anti-convulsivant activity with respect to bicuculline (in words)", "setting": "[2]", "result": "effective dose 50 most often greater than that of the products of the invention"}, {"measurement": "ED50", "setting": "[2]; [6]", "result": 234, "unit": "mg/kg"}, {"measurement": "ED50", "setting": "[3]", "result": 290, "unit": "mg/kg"}, {"measurement": "anti-convulsivant activity with respect to electric shock (in words)", "setting": "[3]; mice", "result": "effective dose 50 most often greater than that of the products of the invention"}]}
